Experimental data as given in patent US9751858B2, “3-heteroaroylamino-propionic acid derivatives and their use as pharmaceuticals” (SANOFI, priority 2011, dated 2017).

These compounds were tested against T1, Recombinant human cathepsin A (Homo sapiens, UniProt P10619) (assay: Cathepsin A inhibitory activity). Conditions: activated recombinant human cathepsin A 833 ng/ml, Bodipy FL-labeled bradykinin 2 μM, pH 5.5, 15 min room temperature.
T1 construct: Recombinant human cathepsin A (residues 29-480, with a C-terminal 10-His tag); 10-His (C); purchased R&D Systems 1049-SE
T1 sequence (P10619 29-326 limits assumed): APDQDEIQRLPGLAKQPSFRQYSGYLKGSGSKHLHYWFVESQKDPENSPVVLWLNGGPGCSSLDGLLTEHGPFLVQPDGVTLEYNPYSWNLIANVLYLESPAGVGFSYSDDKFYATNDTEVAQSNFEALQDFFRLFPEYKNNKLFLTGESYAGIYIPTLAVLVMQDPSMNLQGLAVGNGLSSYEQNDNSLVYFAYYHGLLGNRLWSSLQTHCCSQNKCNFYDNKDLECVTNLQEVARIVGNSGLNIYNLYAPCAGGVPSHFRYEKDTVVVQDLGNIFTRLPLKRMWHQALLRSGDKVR
T1 sequence (P10619 327-480 limits assumed): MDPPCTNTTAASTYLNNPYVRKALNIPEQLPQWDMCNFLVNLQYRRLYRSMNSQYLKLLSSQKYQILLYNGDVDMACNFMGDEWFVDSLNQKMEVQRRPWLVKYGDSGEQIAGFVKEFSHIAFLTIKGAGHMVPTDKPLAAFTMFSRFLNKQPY
Type: biochemical
Method: a) Cathepsin a Inhibitory Activity
Briefly, cathepsin A was incubated at 10 μg/ml with cathepsin L at 1 μg/ml in activation buffer (25 mM 2-(morpholin-4-yl)-ethanesulfonic acid (MES), pH 6.0, containing 5 mM dithiothreitol (DTT)) for 15 min at 37° C.
The activated cathepsin A was diluted in assay buffer (25 mM MES, pH 5.5, containing 5 mM DTT) and mixed with the test compound (dissolved in assay buffer containing (v/v) 3% DMSO) or, in the control experiments, with the vehicle in a multiple assay plate. After incubation for 15 min at room temperature, as substrate then bradykinin carrying an N-terminal ®Bodipy FL (4,4-difluoro-5,7-dimethyl-4-bora-3a,4a-diaza-s-indacene-3-propionyl) label (JPT Peptide Technologies GmbH; dissolved in assay buffer) was added to the mixture. […] After incubation for 15 min at room temperature the reaction was stopped by the addition of stop buffer (130 mM 2-(4-(2-hydroxy-ethyl)-piperazin-1-yl)-ethanesulfonic acid, pH 7.4, containing (v/v) 0.013%® Triton X-100, 0.13% Coating Reagent 3 (Caliper Life Sciences), 6.5% DMSO and 20 μM ebelactone B (Sigma, # E0886)).
Uncleaved substrate and product were then separated by a microfluidic capillary electrophoresis on a LabChip® 3000 Drug Discovery System (12-Sipper-Chip; Caliper Life Sciences) and quantified by determination of the respective peak areas. Substrate turnover was calculated by dividing product peak area by the sum of substrate and product peak areas, and the enzyme activity and the inhibitory effect of the test compound thus quantified.

IC50	SMILES
1.47 µM	CC(C)c1oc(-c2ccccc2)nc1C(=O)NC(CC(=O)O)C1CCCCC1 (stereo not shown) [Example 34, 3-Cyclohexyl-3-[(5-isopropyl-2-phenyl-oxazole-4-carbonyl)-amino]-propionic acid]
5.14 µM	Cc1oc(-c2ccccc2F)nc1C(=O)N[C@@H](CC(=O)O)c1ccccc1F [Example 35, (S)-3-(2-Fluoro-phenyl)-3-{[2-(2-fluoro-phenyl)-5-methyl-oxazole-4-carbonyl]-amino}-propionic acid]
0.198 µM	Cc1oc(-c2ccccc2F)nc1C(=O)N[C@@H](CC(=O)O)c1cccc(F)c1 [Example 36, (S)-3-(3-Fluoro-phenyl)-3-{[2-(2-fluoro-phenyl)-5-methyl-oxazole-4-carbonyl]-amino}-propionic acid]
4.2 µM	Cc1oc(-c2ccccc2F)nc1C(=O)N[C@@H](CC(=O)O)c1ccc(F)cc1 [Example 37, (S)-3-(4-Fluoro-phenyl)-3-{[2-(2-fluoro-phenyl)-5-methyl-oxazole-4-carbonyl]-amino}-propionic acid]
6 µM	Cc1ccc([C@H](CC(=O)O)NC(=O)c2noc(-c3cccc(F)c3F)n2)cc1 [Example 38, (S)-3-{[5-(2,3-Difluoro-phenyl)-[1,2,4]oxadiazole-3-carbonyl]-amino}-3-p-tolyl-propionic acid]
9.37 µM	Cc1cccc([C@H](CC(=O)O)NC(=O)c2noc(-c3cccc(F)c3F)n2)c1 [Example 39, (S)-3-{[5-(2,3-Difluoro-phenyl)-[1,2,4]oxadiazole-3-carbonyl]-amino}-3-m-tolyl-propionic acid]
1.94 µM	C[C@@](CC(=O)O)(NC(=O)c1noc(-c2cccc(F)c2F)n1)c1ccccc1 [Example 40, (S)-3-{[5-(2,3-Difluoro-phenyl)-[1,2,4]oxadiazole-3-carbonyl]-amino}-3-phenyl-butyric acid]
13.4 µM	O=C(O)C[C@@H](Cc1ccccc1)NC(=O)c1noc(-c2cccc(F)c2F)n1 [Example 41, (R)-3-{[5-(2,3-Difluoro-phenyl)-[1,2,4]oxadiazole-3-carbonyl]-amino}-4-phenyl-butyric acid]
> 10 µM	Cc1ccccc1[C@H](CC(=O)O)NC(=O)c1noc(-c2cccc(F)c2F)n1 [Example 42, (S)-3-{[5-(2,3-Difluoro-phenyl)-[1,2,4]oxadiazole-3-carbonyl]-amino}-3-o-tolyl-propionic acid]
0.107 µM	O=C(O)C[C@H](NC(=O)c1noc(-c2cccc(F)c2F)n1)c1ccccc1F [Example 43, (S)-3-{[5-(2,3-Difluoro-phenyl)-[1,2,4]oxadiazole-3-carbonyl]-amino}-3-(2-fluoro-phenyl)-propionic acid]
5.33 µM	O=C(O)C[C@H](NC(=O)c1noc(-c2cccc(F)c2F)n1)c1ccc(F)cc1 [Example 44, (S)-3-{[5-(2,3-Difluoro-phenyl)-[1,2,4]oxadiazole-3-carbonyl]-amino}-3-(4-fluoro-phenyl)-propionic acid]
8.88 µM	CC(C)c1oc(-c2ccccc2)nc1C(=O)NC(CC(=O)O)Cc1ccccc1 (stereo not shown) [Example 45, 3-[(5-Isopropyl-2-phenyl-oxazole-4-carbonyl)-amino]-4-phenyl-butyric acid]
> 10 µM	Cc1ccccc1[C@H](CC(=O)O)NC(=O)c1cc(S(=O)(=O)N(C)C)oc1C [Example 46, (S)-3-[(5-Dimethylsulfamoyl-2-methyl-furan-3-carbonyl)-amino]-3-o-tolyl-propionic acid]
2.18 µM	CC(C)c1oc(-c2ccccc2)nc1C(=O)N[C@@H](CC(=O)O)c1ccccc1F [Example 47, (S)-3-(2-Fluoro-phenyl)-3-[(5-isopropyl-2-phenyl-oxazole-4-carbonyl)-amino]-propionic acid]
1.82 µM	CC(C)c1oc(-c2ccccc2)nc1C(=O)N[C@@H](CC(=O)O)c1ccc(F)cc1 [Example 48, (S)-3-(4-Fluoro-phenyl)-3-[(5-isopropyl-2-phenyl-oxazole-4-carbonyl)-amino]-propionic acid]
> 10 µM	O=C(O)C[C@@H](Cc1ccccc1)NC(=O)CCc1nc(-c2ccccc2F)no1 [Example 49, (R)-3-{3-[3-(2-Fluoro-phenyl)-[1,2,4]oxadiazol-5-yl]-propionylamino}-4-phenyl-butyric acid]

IC50	SMILES
> 10 µM	Cc1cccc([C@H](CC(=O)O)NC(=O)CCc2nc(-c3ccccc3F)no2)c1 [Example 50, (S)-3-{3-[3-(2-Fluoro-phenyl)-[1,2,4]oxadiazol-5-yl]-propionylamino}-3-m-tolyl-propionic acid]
> 10 µM	C[C@@](CC(=O)O)(NC(=O)CCc1nc(-c2ccccc2F)no1)c1ccccc1 [Example 51, (S)-3-{3-[3-(2-Fluoro-phenyl)-[1,2,4]oxadiazol-5-yl]-propionylamino}-3-phenyl-butyric acid]
> 10 µM	Cc1ccc([C@H](CC(=O)O)NC(=O)CCc2nc(-c3ccccc3F)no2)cc1 [Example 52, (S)-3-{3-[3-(2-Fluoro-phenyl)-[1,2,4]oxadiazol-5-yl]-propionylamino}-3-p-tolyl-propionic acid]
> 10 µM	Cc1ccccc1[C@H](CC(=O)O)NC(=O)CCc1nc(-c2ccccc2F)no1 [Example 53, (S)-3-{3-[3-(2-Fluoro-phenyl)-[1,2,4]oxadiazol-5-yl]-propionylamino}-3-o-tolyl-propionic acid]
16.7 µM	O=C(N[C@H](C(=O)O)C1CCCCC1)c1noc(-c2cnccc2C(F)(F)F)n1 [Example 54, (S)-Cyclohexyl-{[5-(4-trifluoromethyl-pyridin-3-yl)-[1,2,4]oxadiazole-3-carbonyl]-amino}-acetic acid]
0.738 µM	Cc1ccc([C@H](CC(=O)O)NC(=O)c2nc(C)n(-c3ccccc3Cl)n2)cc1 [Example 55, (S)-3-{[1-(2-Chloro-phenyl)-5-methyl-1H-[1,2,4]triazole-3-carbonyl]-amino}-3-p-tolyl-propionic acid]
1.68 µM	CCc1nc(C(=O)N[C@@H](CC(=O)O)c2ccccc2)nn1-c1ccccc1Cl [Example 56, (S)-3-{[1-(2-Chloro-phenyl)-5-ethyl-1H-[1,2,4]triazole-3-carbonyl]-amino}-3-phenyl-propionic acid]
0.261 µM	Cc1ccccc1[C@H](CC(=O)O)NC(=O)c1nc(C)n(-c2ccccc2Cl)n1 [Example 57, (S)-3-{[1-(2-Chloro-phenyl)-5-methyl-1H-[1,2,4]triazole-3-carbonyl]-amino}-3-o-tolyl-propionic acid]
> 10 µM	O=C(O)C[C@H](NC(=O)CCc1nc(-c2ccccc2F)no1)c1ccc(F)cc1 [Example 58, (S)-3-(4-Fluoro-phenyl)-3-{3-[3-(2-fluoro-phenyl)-[1,2,4]oxadiazol-5-yl]-propionylamino}-propionic acid]
0.337 µM	O=C(O)C[C@H](NC(=O)CCc1nc(-c2ccccc2F)no1)c1ccccc1F [Example 59, (S)-3-(2-Fluoro-phenyl)-3-{3-[3-(2-fluoro-phenyl)-[1,2,4]oxadiazol-5-yl]-propionylamino}-propionic acid]
22.4 µM	O=C(O)C[C@H](NC(=O)CCc1nc(-c2ccccc2F)no1)c1cccc(F)c1 [Example 60, (S)-3-(3-Fluoro-phenyl)-3-{3-[3-(2-fluoro-phenyl)-[1,2,4]oxadiazol-5-yl]-propionylamino}-propionic acid]
0.189 µM	Cc1oc(-c2ccccc2F)nc1C(=O)N[C@@H](CC(=O)O)c1cccc(Cl)c1 [Example 61, (S)-3-(3-Chloro-phenyl)-3-{[2-(2-fluoro-phenyl)-5-methyl-oxazole-4-carbonyl]-amino}-propionic acid]
3.41 µM	Cc1oc(-c2ccccc2F)nc1C(=O)NC(CC(=O)O)c1ccccc1Cl (stereo not shown) [Example 62, 3-(2-Chloro-phenyl)-3-{[2-(2-fluoro-phenyl)-5-methyl-oxazole-4-carbonyl]-amino}-propionic acid]
3.41 µM	Cc1oc(-c2ccccc2F)nc1C(=O)N[C@@H](CC(=O)O)c1ccc(Cl)cc1 [Example 63, (S)-3-(4-Chloro-phenyl)-3-{[2-(2-fluoro-phenyl)-5-methyl-oxazole-4-carbonyl]-amino}-propionic acid]
> 10 µM	CCCS(=O)(=O)Nc1cn(C)nc1C(=O)N[C@@H](CC(=O)O)c1ccccc1C [Example 64, (S)-3-{[1-Methyl-4-(propane-1-sulfonylamino)-1H-pyrazole-3-carbonyl]-amino}-3-o-tolyl-propionic acid]
